15 compounds from PubChem BioAssay (NCI) can be followed below.

Holding throughout (assay): growth of human tumour cells (NCI), 48 h
The test system of assay [1] is ACHN renal.
The subject of assay [2] is EKVX NSCLC.
In assay [3] the test system is HCT-116 colon.
The test system of assay [4] is HCT-15 colon.
The subject of assay [5] is IGROV1 ovarian.
The test system of assay [6] is MCF7 breast.
For assay [7], the system named is PC-3 prostate.
Assay [8] concerns SF-268 CNS.
Assay [9] relates to SF-295 CNS.
In assay [10] the test system is SK-MEL-5 melanoma.

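Results reflect a 48-hour exposure of cells in 96-well plates to compound at five concentrations. TGI denotes the concentration required for complete inhibition of growth.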 A value given as a limit tells only on which side of the number the result lay.

With `S=C1SCN(Cc2ccco2)CN1c1ccc(Br)cc1`, the TGI stood at 64.2 µM in [1]; 64.6 µM in assay [2]; 42.2 µM in assay [3]; 26.9 µM in [4]; 45.7 µM in assay [5]; 31.3 µM in assay [6]. Besides, the TGI worked out at 37 µM in assay [7], 40.7 µM in [8], 28.7 µM in [9] and 24.5 µM in assay [10].
Consider `CC(=O)Nc1ccc(OC2=CCN(C)CC2)cc1`, for which the TGI in assay [1], in assay [2], in assay [3], in assay [4], in assay [5] and in [6] was greater than 100 µM each time. Also, the TGI in assay [7], in assay [8], in [9] and in [10] was greater than 100 µM in each case.
Regarding `CCOC(=O)c1nc2ccc(C(F)(F)F)cc2nc1Oc1cc(OC)cc(OC)c1`, the TGI in [1], in [2], in assay [3], in [4], in [5] and in assay [6] was greater than 100 µM throughout. For the same compound, the TGI in assay [7] is greater than 100 µM; in assay [8], greater than 100 µM; in assay [9], greater than 100 µM; in [10], 79.1 µM.
With `CC(=O)c1c(C(F)(F)F)n([O-])c2cc(Cl)c(Cl)cc2[n+]1=O`, the TGI in [1] was 1.92 µM; in assay [2] it was 2.89 µM; in assay [3], 1.61 µM; in [4], 0.759 µM; in assay [5], 0.498 µM; in assay [6] it was 1.52 µM. The TGI worked out at 3.09 µM in assay [7], 2.53 µM in [8], 2.27 µM in assay [9] and 2.06 µM in assay [10].
For the compound `CCN(C(=S)N[C@H](C(=O)N[C@@H](C)C(=O)OC)C(C)C)c1ccccc1`, the TGI in [1], in assay [2], in [3], in assay [4], in assay [5] and in assay [6] was greater than 100 µM each time. Besides, the TGI in assay [7], in assay [9] and in [10] was greater than 100 µM in each case.
Consider `COc1ccc2nc3cc([N+](=O)[O-])ccc3c(Nc3ccc(S(=O)(=O)NC(C)=O)cc3)c2c1`, for which the TGI in assay [1], in assay [2], in assay [3], in assay [4], in assay [6] and in [7] was greater than 100 µM in each case. Moreover, the TGI in assay [8], in [9] and in assay [10] was greater than 100 µM each time.
For the compound `O=C1C(=O)c2ccccc2C(O)=C1CCCc1ccc(Oc2ccccc2)cc1`, the TGI in [1] is 76.5 µM; in assay [2], greater than 100 µM; in [4], 79.7 µM; in assay [5] it was 84.3 µM; in assay [8], greater than 100 µM; in assay [9], 74.3 µM. The same compound yielded a TGI in [10] of 10.6 µM.
For `CC1(C)[C@H]2CC[C@]1(C)[C@H](OC(=O)NNC(=O)O[C@@H]1C[C@@H]3CC[C@@]1(C)C3(C)C)C2`, the TGI in [1] worked out at 36.7 µM; in assay [2] it was 31.2 µM; in assay [3], 34.5 µM; in assay [4], 27.5 µM; in assay [5], 30.4 µM; in assay [6], 26.4 µM. Further, the TGI came to 33.1 µM in [8], 28.8 µM in assay [9] and 25.5 µM in assay [10].
As to `CCOC(=O)Cc1cc(OC)c(OC)cc1/C(Cl)=C(\C=O)c1ccc(OC)c(OC)c1`, the TGI in [1] stood at 55.6 µM; in assay [2], 71.7 µM; in assay [3], 29 µM; in assay [4] it was 45.2 µM; in assay [5], 78.9 µM; in assay [9], 29 µM. This compound had a TGI in assay [10] of 35.1 µM.
As for `CC1(c2ccc[n+](Cc3ccccc3)c2)OCCO1`, the TGI in assay [1], in [2], in [3], in assay [4], in [5] and in assay [9] was greater than 100 µM in each case. The TGI in assay [10] was greater than 100 µM.
For `COc1ccc(-c2cc(-c3cc4cc(Br)ccc4nc3Cl)c(C#N)c(N)n2)cc1`, the TGI in assay [2], in [3], in assay [4], in assay [5], in assay [6] and in assay [7] was greater than 12.5 µM in each case. Moreover, the TGI in assay [8], in assay [9] and in assay [10] was greater than 12.5 µM throughout.
`COc1cc(C(C)c2cc3c(cc2OCCO)OCO3)cc(OC)c1OC` (stereo not given): the TGI in [1], in [2], in assay [3], in assay [4], in [5] and in assay [8] was greater than 100 µM in each case. Further, the TGI was 2.24 µM in assay [9] and greater than 100 µM in assay [10].
With `O=C(Cn1c(C(=O)/C=C/c2cccs2)nc2ccccc21)c1ccc(Cl)cc1`, the TGI in assay [1] is greater than 100 µM; in assay [3], 39.5 µM; in assay [4], 83 µM; in assay [5], 77.7 µM; in assay [6], 48.4 µM; in assay [8] it was 66.5 µM. The same compound came in with a TGI in [10] of 43.3 µM.
Consider `CCOC(=O)c1c(N2CCCC2)ncn(Cc2ccccc2)c1=S`, for which the TGI in assay [1], in [2], in assay [3], in [4], in assay [5] and in assay [7] was greater than 100 µM throughout. For the same compound, the TGI in assay [8], in assay [9] and in assay [10] was greater than 100 µM each time.
`CN(C)c1nc2oc(-c3ccccc3)c(-c3ccccc3)c2c2nnnn12`: the TGI in [1], in [2], in assay [3], in assay [4], in assay [5] and in [6] was greater than 100 µM each time. The TGI in assay [8], in assay [9] and in assay [10] was greater than 100 µM each time.
